# Source: patent US20260098008A1, “COVALENT, CHEMOGENETIC ACTIVATORS FOR K2P POTASSIUM CHANNELS AND USES THEREOF” (THE REGENTS OF THE UNIVERSITY OF CALIFORNIA, priority 2022, published 2026)
# Residue numbers refer to the chain shown, from its start.
# Legend:
# Format in all cases: cell-based
# [1] = molecular target: T1, WT-WT tandem K2P2.1 (TREK-1) (Mus musculus, UniProt P97438); experiment: Single channel recordings from HEK293 cells in cell attached mode; conditions: 20 μM; for Change of open probability (Po activator/Po control): cell-attached, -100 mV
# T1 construct: expressed in transfected cells; host or cells: Xenopus laevis oocytes injected with mRNA
# T1 sequence (P97438 1-411 isoform P97438-2) 1: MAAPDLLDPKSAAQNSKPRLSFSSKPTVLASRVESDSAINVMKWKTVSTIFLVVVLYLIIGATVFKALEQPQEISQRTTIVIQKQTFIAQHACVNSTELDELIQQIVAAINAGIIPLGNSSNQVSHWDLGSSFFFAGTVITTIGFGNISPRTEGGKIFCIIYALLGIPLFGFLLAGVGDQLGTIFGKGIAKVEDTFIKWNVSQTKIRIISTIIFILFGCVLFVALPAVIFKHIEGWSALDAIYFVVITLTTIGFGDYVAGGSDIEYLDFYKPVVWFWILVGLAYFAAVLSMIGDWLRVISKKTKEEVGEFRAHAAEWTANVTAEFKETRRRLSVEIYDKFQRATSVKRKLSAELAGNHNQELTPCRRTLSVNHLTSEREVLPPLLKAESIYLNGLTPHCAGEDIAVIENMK
# T1 sequence (P97438 1-411 isoform P97438-2) 2: T1 sequence (P97438 1-411 isoform P97438-2) 1
# From the text: (§1) Mouse K2P2.1 (TREK-1) (Genbank accession number: NP_034737.2), mouse K2P10.1 (TREK-2) (NM_001316665.1), mouse K2P4.1 (TRAAK) (NM_008431.3), human K2P4.1 (TRAAK) (NM_033310.2) and mouse K2P18.1(TRESK) (NM_207261.3) were used for this study. Point mutations were introduced by site-directed mutagenesis using custom primers and confirmed by sequencing before use. For studies using Xenopus oocytes, K2P channels were subcloned into a previously reported pGEMHE/pMO vector (46). For expression in HEK293 cells, mouse K2P2.1 (TREK-1) and mutants were expressed from a previously described pIRES2-EGFP vector in HEK293 cells (46,47). K2P2.1 (TREK-1) tandems were constructed by connecting the open reading frames for the individual subunits with a linker encoding the […] (SEQ ID NO: 19) sequence. Tandems used for HEK293 cells included an N-terminal HA tag ([…] (SEQ ID NO: 20)) on the first subunit.
# (§2) Single-channel recordings of K2P2.1 (TREK-1) tandem mutants were recorded in cell-attached mode using HEK293 cells 48 h after transfection. Acquisition and analysis was preformed using pCLAMP9 and an Axopatch 200B amplifier. Pipettes were pulled using a laser-based micropipette puller (P-2000, Sutter Instruments). Electrode resistance after filling with pipette internal solution ranged from 6 to 10 MΩ. Pipette solution contained the following: 150 mM KCl, 3.6 mM CaCl2, 10 mM HEPES (pH 7.4 with KOH). The bath solution was identical to the pipette solution. Po was measured from 30-120 s recordings of K2P2.1 (TREK-1) activity holding at −100 mV. Channel conductance of K2P2.1 (TREK-1) tandems were measured from 30-60s recordings at either −100 mV or +50 mV holding potential. Recordings of CAT335 activated channels were obtained by bath applying 20 μM CAT335 for 2 min to the coverslip before transferring to the recording chamber. This was necessary as application of CAT335 via perfusion or through the pipette solution activated slowly (>5 min), making it difficult to measure Po from fully activated channels. BL-1249 was applied at 20 μM in the bath solution via perfusion at 3 mL min^−1 (2-4 min). Data were analyzed using Clampfit 11 and GraphPad Prism 9.
# [2] = molecular target: T2, CG*-WT tandem K2P2.1 (TREK-1) (Mus musculus, UniProt P97438, S146C); experiment: as above; conditions: 20 μM; for Change of open probability (Po activator/Po control): cell-attached, -100 mV
# T2 construct: expressed in transfected cells; host or cells: Xenopus laevis oocytes injected with mRNA
# T2 sequence (P97438 1-411 isoform P97438-2 S131C): T1 sequence (P97438 1-411 isoform P97438-2) 1 with S131C
# T2 sequence (P97438 1-411 isoform P97438-2): T1 sequence (P97438 1-411 isoform P97438-2) 1
# From the text: as §1, §2
# [3] = molecular target: T3, CG*-CG* tandem K2P2.1 (TREK-1) (Mus musculus, UniProt P97438, S146C); experiment: as above; conditions: 20 μM; for Change of open probability (Po activator/Po control): cell-attached, -100 mV
# T3 construct: expressed in transfected cells; host or cells: Xenopus laevis oocytes injected with mRNA
# T3 sequence (P97438 1-411 isoform P97438-2 S131C) 1: T1 sequence (P97438 1-411 isoform P97438-2) 1 with S131C
# T3 sequence (P97438 1-411 isoform P97438-2 S131C) 2: T1 sequence (P97438 1-411 isoform P97438-2) 1 with S131C
# From the text: as §1, §2
# TREK-1^CG* = molecular target: T4, TREK-1^CG* (Mus musculus, UniProt P97438, S146C); experiment: Whole-cell patch clamp in transfected HEK293 cells; conditions: 20 μM; for Fold-activation (I activator/I control): whole-cell currents
# T4 construct: expressed in transfected cells; host or cells: HEK293 (pIRES2-EGFP vector)
# T4 sequence (P97438 1-411 isoform P97438-2 S131C): T1 sequence (P97438 1-411 isoform P97438-2) 1 with S131C
# From the text: as §1
# 50% confluent cells were co-transfected (in 35-mm diameter wells) with 10-100 ng of the K2P2.1 plasmid and 400 ng of an eGFP plasmid (for visualization) using LipofectAMINE 2000 (Invitrogen) for 24 h, after which the cells were either plated onto coverslips or the media exchanged with fresh media. Cells were plated onto Matrigel coated coverslips (BD Biosciences) 1-2 hours before experiments.
# Whole-cell patch-clamp experiments with K2P2.1(TREK-1) and mutants were carried out 24-48 h after transfection. Acquisition and analysis for voltage-clamp experiments were performed using pCLAMP10 and an Axopatch 200B amplifier (Molecular Devices). Current-clamp experiments were acquired using an […] amplifier (Molecular Devices). Pipettes were pulled using a Flaming/Brown micropipette puller (P-97, Sutter Instruments) and flame-polished using a MF-830 microforge (Narishige). Electrode resistance after filling with pipette internal solution ranged from 2 to 5 MΩ. Currents were low-pass filtered at 2 kHz and sampled at 10 kHz. Pipette solution contained the following: 145 mM KCl, 3 mM MgCl2, 5 mM EGTA and 20 mM HEPES (pH 7.2 with KOH). Bath solution contained the following: 145 mM NaCl, 5 mM KCl, 1 mM CaCl2, 3 mM MgCl2 and 20 mM HEPES (pH 7.4 with NaOH). K2P2.1 currents were elicited by a 1 s ramp from −100 to +50 mV from a −80 mV holding potential. Current-clamp recordings were taken with no holding current (I=0). Only K2P2.1(TREK-1)^CG* whole-cell patches with basal currents between […] at 0 mV were used Criteria for A286F K2P2.1(TREK-1)^CG*. ML335 or CAT335 were applied at 20 μM in bath solution and were perfused at 3 ml min^−1 until potentiation stabilized (1-3 min). Data were analyzed using Clampfit 11 and GraphPad Prism 9.
Change of open probability (Po activator/Po control) [1],Change of open probability (Po activator/Po control) [2],Change of open probability (Po activator/Po control) [3],Reversibility of activation on washout (TREK-1^CG*),Fold-activation (I activator/I control) (TREK-1^CG*),Structure (SMILES),Effect on single channel conductance ([1]; -100 mV and +50 mV),Effect on single channel conductance ([2]; -100 mV and +50 mV),Effect on single channel conductance ([3]; -100 mV and +50 mV)
large increases in Po,large increases in Po,large increases in Po,,,"c1ccc(-c2nn[nH]n2)c(Nc2cccc3c2CCCC3)c1 [BL-1249, reference compound]",,,
no impact on open probability,6.3,7.8,irreversible,8.5 ± 1.5 fold,O=C(NCc1ccc(Cl)cc1Cl)c1ccc(N2C(=O)C=CC2=O)cc1 [CAT335],minimal to no effect on single channel conductance,minimal to no effect on single channel conductance,minimal to no effect on single channel conductance
,,,,3.7 ± 0.4 fold,"CS(=O)(=O)Nc1ccc(C(=O)NCc2ccc(Cl)cc2Cl)cc1 [ML335, reference compound]",,,
